Values of other authors in publication PMC3816732, “Database-Guided Discovery of Potent Peptides to Combat HIV-1 or Superbugs” (Pharmaceuticals, 2013).
pEC50: −log10 of the molar value. Entries after “also recorded” stand apart in the source; their conditions may differ. Where two headings read alike, the source gives them in different places. Bridges are numbered along the chain shown (N, C = ends). Where no end group is shown, it is not given here.

Columns and labels:
[1] = tested on: Staphylococcus aureus USA300 LAC; design: method as in 2 sources, ref 52, 53 = [52]; PMID 20086159; doi:10.1128/AAC.01448-09; 52. Wang G. Watson K.M. Peterkofsky A. Buckheit R.W. Jr. Identification of novel human immunodeficiency virus type 1 inhibitory peptides based on the antimicrobial peptide database Antimicrob. Agents || [53]; PMID 22445495; doi:10.1016/j.ijantimicag.2012.02.003; 53. Menousek J. Mishra B. Hanke M.L. Heim C.E. Kielian T. Wang G. Database screening and in vivo efficacy of antimicrobial peptides against methicillin-resistant Staphylococcus aureus USA300 Int. J. A ||| ref 55 = [55]; PMID 22803960; doi:10.1021/ja305644e; 55. Mishra B. Wang G. Ab initio design of potent anti-MRSA peptides based on database filtering technology J. Am. Chem. Soc. 2012 134 12426 12429 10.1021/ja305644e 22803960 PMC3412535; conditions: for S. aureus USA300 (MIC, μM): S. aureus USA300 LAC (MRSA), database screening; for activity against S. aureus USA300 (MRSA), in words: database-screened peptides
Source text: In fact, the annual frequency of deaths from MRSA is rapidly increasing and has surpassed those caused by HIV/AIDS. Therefore, there is a need to develop new treatments to control MRSA. To identify new compounds against MRSA USA300 LAC, we also assayed the antibacterial activity of the same 30 peptides used for screening anti-HIV-1 peptides above. […] For example, proline-rich AMPs are known to interact with bacterial heat shock proteins.

[2] = tested on: Bacillus subtilis; conditions: database-screened peptides
Source text: [The procedure below names another organism; the source lists this organism under the same test.] (§1) The spread of MRSA from the clinical setting to the communities is worrisome. In fact, the annual frequency of deaths from MRSA is rapidly increasing and has surpassed those caused by HIV/AIDS. Therefore, there is a need to develop new treatments to control MRSA. To identify new compounds against MRSA USA300 LAC, we also assayed the antibacterial activity of the same 30 peptides used for screening anti-HIV-1 peptides above. […] We referred to this unique method as ab initio design to distinguish it from the de novo methods above. Our design comprises two major modules. The first module consists of an activity filter that allows us to obtain a list of peptides with desired activity (e.g., antibacterial, antifungal, antiviral, antiparasitic, or anticancer). To obtain compounds to kill S. aureus, we retrieved all AMPs with activity against Gram-positive bacteria as model peptides. The second module is composed of a series of parameter filters ...

[3] = tested on: Pseudomonas aeruginosa; conditions: database-screened peptides
Source text: [The procedure below names another organism; the source lists this organism under the same test.] as §1

[4] = tested on: Escherichia coli; conditions: database-screened peptides
Source text: as §1, with “... || As a second example, we also aimed to identify the minimal active region in a longer peptide. Human cathelicidin LL-37 is a 37-residue peptide starting with a pair of leucines. Our studies produced a library of model peptides with distinct antimicrobial activity. KR-12 is identified as the minimal antibacterial peptide corresponding to residues 18–29 of human LL-37. It is active against E. coli but not HIV-1 [56, 71]. However, FK-13, a core antimicrobial peptide with one more phenylalanine at the N-terminus than KR-12 [72], is active against both HIV-1 and E. coli.” for “...”

[5] = tested on: HIV-1
Source text: For example, proline-rich AMPs are known to interact with bacterial heat shock proteins.

[6] = tested on: E. coli K12; design: method as in 5 sources, ref [9] = [9]; PMID 18957441; doi:10.1093/nar/gkn823; 9. Wang G. Li X. Wang Z. The updated antimicrobial peptide database and its application in peptide design Nucleic Acids Res. 2009 37 D933 D937 10.1093/nar/gkn823 18957441 PMC2686604 ||| ref [52] = [52]; PMID 20086159; doi:10.1128/AAC.01448-09; 52. Wang G. Watson K.M. Peterkofsky A. Buckheit R.W. Jr. Identification of novel human immunodeficiency virus type 1 inhibitory peptides based on the antimicrobial peptide database Antimicrob. Agents ||| ref [54] = [54]; doi:10.4172/2155-6113.S2-003; 54. Wang G. Buckheit K.W. Mishra B. Lushnikova T. Buckheit R.W. Jr. De Novo Design of Antiviral and Antibacterial Peptides with Varying Loop structures J. AIDS Clin. Res. 2011 S2:003 10.4172/2155-6113 ||| ref 9, 52, 54 = [9]; PMID 18957441; doi:10.1093/nar/gkn823; 9. Wang G. Li X. Wang Z. The updated antimicrobial peptide database and its application in peptide design Nucleic Acids Res. 2009 37 D933 D937 10.1093/nar/gkn823 18957441 PMC2686604 || [52]; PMID 20086159; doi:10.1128/AAC.01448-09; 52. Wang G. Watson K.M. Peterkofsky A. Buckheit R.W. Jr. Identification of novel human immunodeficiency virus type 1 inhibitory peptides based on the antimicrobial peptide database Antimicrob. Agents || [54]; doi:10.4172/2155-6113.S2-003; 54. Wang G. Buckheit K.W. Mishra B. Lushnikova T. Buckheit R.W. Jr. De Novo Design of Antiviral and Antibacterial Peptides with Varying Loop structures J. AIDS Clin. Res. 2011 S2:003 10.4172/2155-6113 ||| ref 9, 54 = [9]; PMID 18957441; doi:10.1093/nar/gkn823; 9. Wang G. Li X. Wang Z. The updated antimicrobial peptide database and its application in peptide design Nucleic Acids Res. 2009 37 D933 D937 10.1093/nar/gkn823 18957441 PMC2686604 || [54]; doi:10.4172/2155-6113.S2-003; 54. Wang G. Buckheit K.W. Mishra B. Lushnikova T. Buckheit R.W. Jr. De Novo Design of Antiviral and Antibacterial Peptides with Varying Loop structures J. AIDS Clin. Res. 2011 S2:003 10.4172/2155-6113; conditions: for MIC: peptide potency against E. coli K12
Source text: Our initial attempt was a stepwise design based on the bioinformatics results from our database.

[7] = tested on: chymotrypsin
[8] = tested on: Staphylococcal biofilm; conditions: catheter embedded in mice
[9] = tested on: herpes simplex virus type-2 (HSV-2); design: method as in doi:10.4172/2155-6113.S2-003
Source text: These GLRC peptides (Table 3) are made of only amino acids G, L, R, and C. […] O ...

[10] = peptide potency against HIV-1, database-guided designed peptides

Row | Substance | S. aureus USA300 (MIC, μM) [1] [µM] | activity against S. aureus USA300 (MRSA), in words [1] | activity against B. subtilis, in words [2] | activity against P. aeruginosa, in words [3] | activity against E. coli, in words [4] | pEC50 [5, 10] | MIC [6] [µM] | also measured
1 | Piscidin 1 | 3.1 | effective | active | active | active |  |  | activity against S. aureus USA300 (MRSA), in words ([1]; listed as piscidin 1): active
2 | Lycotoxin I: spider antimicrobial peptide (IWLTALKFLGKHAAKHLAKQQLSKL; UniProt P61507 1-25, looked up) | 3.1 | active | active | active | active |  |  | 
3 | IKWKKLLRAAKRIL-NH2 [DASamP2, derivative of polybia-MPI, […]-amide] | 6.2 | active | active | active | active |  |  | 
4 | drosocin [reference compound] |  |  |  |  |  |  |  | activity against HIV-1, in words [5]: did not show any activity
5 | Ascaphin-8 | 3.1 | effective | active | active | active |  |  | activity against HIV-1, in words [5]: effective; pEC50 ([5]; read-out: HIV-1 (EC50)): 5.92; activity against S. aureus USA300 (MRSA), in words ([1]; listed as Aascaphin-8): active
6 | GLRRLLGRLLRRLGRLLLR [GLR-19] |  |  |  |  |  | 5.36 | >120 | activity against HIV-1, in words ([5]; GLK/GLR/GLRC designed peptides): HIV-1 inhibitory; activity against E. coli, in words ([6]; GLK/GLR designed peptides): lost activity; Stability (% left) [7]: 14.5 % left
7 | GLRRLCGRLGRRLCRLLLR (disulfide 6-14 (inferred)) [GLRC-3] |  |  |  |  |  | 5.55 | 7.5 | Stability (% left) [7]: 1.4 % left
8 | GCRRLLGRLLRRLGRLLCR (disulfide 2-18 (inferred)) [GLRC-1] |  |  |  |  |  | < 4.36 | 30 | Stability (% left) [7]: 20.8 % left
9 | GLKKLLGKLLKKLGKLLLK [GLK-19, 19-residue peptide containing only G, L, and K] |  |  |  |  |  | < 4.32 | 10 | activity against HIV-1, in words ([5]; GLK/GLR/GLRC designed peptides): not
10 | GCRRLCGRLGRRLCRLLCR (also: bicyclic or more (positions not given here)) [GLRC-4] |  |  |  |  |  | 4.51 | 60 | Stability (% left) ([7]; stability to the action of chymotrypsin): 9.7 % left
11 | FFGKVLKLIRKIF-NH2 [DASamP1] | 3.1 | active; also recorded: effective | not | not | not |  |  | activity against HIV-1, in words [5]: effective; pEC50 ([5]; read-out: HIV-1 (EC50)): 6.20; prevention of Staphylococcal biofilm formation [8]: able to prevent Staphylococcal biofilm formation
12 | GLRCRLGRLLRRLGRCLLR (disulfide 4-16 (inferred)) [GLRC-2] |  |  |  |  |  | 6.10 | 30 | activity against HIV-1, in words ([5]; GLK/GLR/GLRC designed peptides): most effective; inhibitory effect on HSV-2 [9]: inhibitory effect; Stability (% left) [7]: 63.3 % left; stability to the action of chymotrypsin, in words [7]: most stable
13 | Ponericin L2 [reference compound] |  |  |  |  |  |  |  | pEC50 ([5]; read-out: HIV-1 (EC50), database screening of 30 APD peptides): 5.85
14 | Maculatin 1.3 | 6.2 | active | active | not | not |  |  | 
